This passage reports IC90 results from patent US20230203043A1, “NOVEL IMIDAZOPYRAZINE DERIVATIVES” (Hoffmann-La Roche Inc., priority 2020, published 2023).

Molecules are shown by their SMILES. Where a name gives a salt, the structure may show the parent alone.

The first assay relates to Acinetobacter baumannii ATCC17961. Put plainly: Antimicrobial susceptibility testing: 90% growth inhibitory concentration (IC90) determination in Iso-Sensitest broth, OD600 growth. Format: cell-based. The following applies: Acinetobacter baumannii, ATCC17961, 16 h, read-out: A. baumannii ATCC 17961 IC90 (uM), strain ATCC 17961, OD600 growth over 16 h. In a few lines: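 Serial twofold dilution, 10 points, e.g. 50–0.097 μM final; ~5×10^(5) CFU/ml; 35±2° C, 16 h; kinetic OD600 every 20 min; IC90 from log-phase inhibition.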
In the case of `CCc1cc(Nc2nccn3c(-c4cn(CC(F)F)nc4C(F)(F)F)cnc23)ccc1C(=O)NCC(=O)N1CCC(CN)C1` (stereo not drawn) [Example 527, N-[2-[3-(aminomethyl)pyrrolidin-1-yl]-2-oxo-ethyl]-4-[[3-[1-(2,2-difluoroethyl)-3-(trifluoromethyl)pyrazol-4-yl]imidazo[1,2-a]pyrazin-8-yl]amino]-2-ethyl-benzamide formate], the 90% effect concentration (IC90) stood at 0.306 µM.

Consider `CCc1cc(Nc2nccn3c(-c4cn(CC#N)nc4C(F)(F)F)cnc23)ccc1C(=O)NCC(=O)N1CC2(CNC2)C1` [Example 505, 4-[[3-[1-(cyanomethyl)-3-(trifluoromethyl)pyrazol-4-yl]imidazo[1,2-a]pyrazin-8-yl]amino]-N-[2-(2,6-diazaspiro[3.3]heptan-2-yl)-2-oxo-ethyl]-2-ethyl-benzamide formate], for which the IC90 was determined as 0.449 µM.

Take `CCc1cc(Nc2nccn3c(-c4c[nH]nc4C(F)(F)F)cnc23)ccc1C(=O)NCCNC(=O)NCCCN` [Example 569, N-(2-(3-(3-aminopropyl)ureido)ethyl)-2-ethyl-4-((3-(3-(trifluoromethyl)-1H-pyrazol-4-yl)imidazo[1,2-a]pyrazin-8-yl)amino)benzamide formate]: the IC90 came to 0.364 µM.

In the case of `CCc1cc(Nc2nccn3c(-c4c[nH]nc4C(F)(F)F)cnc23)ccc1C(=O)NCCNC(=O)NCCN` [Example 218, N-[2-(2-aminoethylcarbamoylamino)ethyl]-2-ethyl-4-[[3-[3-(trifluoromethyl)-1H-pyrazol-4-yl]imidazo[1,2-a]pyrazin-8-yl]amino]benzamide formate], the IC90 stood at 0.574 µM.

Turning to `CCc1cc(Nc2nccn3c(-c4cn(CCC(C)(C)O)nc4C(F)(F)F)cnc23)ccc1C(=O)NCCOCCN` [Example 311, N-[2-(2-aminoethoxy)ethyl]-2-ethyl-4-[[3-[1-(3-hydroxy-3-methylbutyl)-3-(trifluoromethyl)pyrazol-4-yl]imidazo[1,2-a]pyrazin-8-yl]amino]benzamide formate], the IC90 turned out to be 0.769 µM.

Regarding `N#CCn1cc(-c2cnc3c(Nc4ccc(C(=O)NCC(=O)N[C@@H]5CCNC5)c(Cl)c4)nccn23)c(C(F)(F)F)n1` [Example 723, 2-chloro-4-[[3-[1-(cyanomethyl)-3-(trifluoromethyl)pyrazol-4-yl]imidazo[1,2-a]pyrazin-8-yl]amino]-N-[2-oxo-2-[[(3R)-pyrrolidin-3-yl]amino]ethyl]benzamide formate], the IC90 is 0.459 µM.

Staying with this assay, now noted: Acinetobacter baumannii, ATCC17961, 16 h, strain ATCC 17961, OD600 growth over 16 h, read-out: A. baumannii ATCC 17961 IC90.
Consider `CCc1cc(Nc2nccn3c(-c4cn(CC(F)F)nc4C(F)(F)F)cnc23)ccc1C(=O)NCC(=O)N1CC[C@H](N)C1` [Example 711, N-[2-[(3S)-3-aminopyrrolidin-1-yl]-2-oxo-ethyl]-4-[[3-[1-(2,2-difluoroethyl)-3-(trifluoromethyl)pyrazol-4-yl]imidazo[1,2-a]pyrazin-8-yl]amino]-2-ethyl-benzamide], for which the IC90 was determined as 0.409 µM.

As for `CCc1cc(Nc2nccn3c(-c4cn(CC(F)F)nc4C(F)(F)F)cnc23)ccc1C(=O)NCCOCCN1CCCC1` [Example 621, 4-((3-(1-(2,2-difluoroethyl)-3-(trifluoromethyl)-1H-pyrazol-4-yl)imidazo[1,2-a]pyrazin-8-yl)amino)-2-ethyl-N-(2-(2-(pyrrolidin-1-yl)ethoxy)ethyl) benzamide formate], the 90% effect concentration (IC90) stood at 0.144 µM.

With `CCc1cc(Nc2nccn3c(-c4c[nH]nc4C(F)(F)F)cnc23)ccc1C(=O)NCCOCCN1CCCC1` [Example 672, 2-ethyl-N-(2-(2-(pyrrolidin-1-yl)ethoxy)ethyl)-4-((3-(3-(trifluoromethyl)-1H-pyrazol-4-yl)imidazo[1,2-a]pyrazin-8-yl)amino)benzamide], the IC90 amounted to 0.313 µM.

`N[C@@H]1CCN(C(=O)CNC(=O)c2ccc(Nc3nccn4c(-c5c[nH]nc5C(F)(F)F)cnc34)cc2Cl)C1` [Example 137, N-[2-[(3R)-3-aminopyrrolidin-1-yl]-2-oxoethyl]-2-chloro-4-[[3-[3-(trifluoromethyl)-1H-pyrazol-4-yl]imidazo[1,2-a]pyrazin-8-yl]amino]benzamide]: the IC90 was found to be 1.86 µM.

Turning to `CCc1cc(Nc2nccn3c(-c4cn(C5CCCC5)nc4C(F)(F)F)cnc23)ccc1C(=O)NCCOCCN` [Example 26, N-[2-(2-aminoethoxy)ethyl]-4-[[3-[1-cyclopentyl-3-(trifluoromethyl)pyrazol-4-yl]imidazo[1,2-a]pyrazin-8-yl]amino]-2-ethylbenzamide hydrochloride], the 90% effect concentration (IC90) amounted to 0.282 µM.

As for `CCc1cc(Nc2nccn3c(-c4cn(COC)nc4C(F)F)cnc23)ccc1C(=O)N1CCN(C(=O)[C@@H](C)N)CC1` [Example 778, (R)-2-amino-1-(4-(4-((3-(3-(difluoromethyl)-1-(methoxymethyl)-1H-pyrazol-4-yl)imidazo[1,2-a]pyrazin-8-yl)amino)-2-ethylbenzoyl)piperazin-1-yl)propan-1-one], the IC90 was found to be 1.03 µM.

`C#CCNC(=O)c1c(C)cc(Nc2nccn3c(-c4cn(CC(F)F)nc4C(F)(F)F)cnc23)cc1F` [Example 37, 4-[[3-[1-(2,2-difluoroethyl)-3-(trifluoromethyl)pyrazol-4-yl]imidazo[1,2-a]pyrazin-8-yl]amino]-2-fluoro-6-methyl-N-prop-2-ynylbenzamide]: the concentration for an effect of 90% (IC90) amounted to 0.239 µM.

For `CCc1cc(Nc2nccn3c(-c4cn(CC#N)nc4C(F)(F)F)cnc23)ccc1C(=O)NCCNC(=O)[C@H](C)N` [Example 493, (S)-N-(2-(2-aminopropanamido)ethyl)-4-((3-(1-(cyanomethyl)-3-(trifluoromethyl)-1H-pyrazol-4-yl)imidazo[1,2-a]pyrazin-8-yl)amino)-2-ethylbenzamide formate], the 90% effect concentration (IC90) amounted to 0.129 µM.

In the case of `O=C(NC1CCN(C(=O)[C@@H]2C[C@@H](O)CN2)CC1)c1ccc(Nc2nccn3c(-c4c[nH]nc4C(F)(F)F)cnc23)cc1Cl` [Example 381, 2-chloro-N-[1-[(2S,4R)-4-hydroxypyrrolidine-2-carbonyl]piperidin-4-yl]-4-[[3-[3-(trifluoromethyl)-1H-pyrazol-4-yl]imidazo[1,2-a]pyrazin-8-yl]amino]benzamide], the IC90 is 0.63 µM.

On to `CCc1cc(Nc2nccn3c(-c4cn(CC(F)F)nc4C(F)F)cnc23)ccc1C(=O)N[C@H]1C[C@@H](N)C1` [Example 539, N-((1s,3s)-3-aminocyclobutyl)-4-((3-(1-(2,2-difluoroethyl)-3-(difluoromethyl)-1H-pyrazol-4-yl)imidazo[1,2-a]pyrazin-8-yl)amino)-2-ethylbenzamide], for which the concentration for an effect of 90% (IC90) stood at 0.461 µM.

On to `CCc1cc(Nc2nccn3c(-c4cn(CC#N)nc4SC)cnc23)ccc1C(=O)NCCOCCN` [Example 831, N-(2-(2-aminoethoxy)ethyl)-4-((3-(1-(cyanomethyl)-3-(methylthio)-1H-pyrazol-4-yl)imidazo[1,2-α]pyrazin-8-yl)amino)-2-ethylbenzamide], for which the IC90 is 0.32 µM.

Take `CCc1cc(Nc2nccn3c(-c4c[nH]nc4C(F)(F)F)cnc23)ccc1C(=O)NCCNC(=O)N1CC[C@H](N)C1` [Example 576, (S)-3-amino-N-(2-(2-ethyl-4-((3-(3-(trifluoromethyl)-1H-pyrazol-4-yl)imidazo[1,2-a]pyrazin-8-yl)amino)benzamido)ethyl) pyrrolidine-1-carboxamide formate]: the IC90 was found to be 0.9 µM.
